Experimental data published in publication PMC6222357, “Liquid Chromatography-Tandem Mass Spectrometry Simultaneous Determination and Pharmacokinetic Study of Fourteen Alkaloid Components in Dog Plasma after Oral Administration of Corydalis bungeana Turcz Extract” (Molecules : A Journal of Synthetic Chemistry and Natural …, 2018).

Experiments:
[1] = Stability of the analytes in beagle plasma QC samples under different storage conditions; type: physicochemical, beagle dog; settings: n = 6; for Stability (% RE) Long-Term: 2 weeks at −80 °C; for Stability (% RE) Short-Term: 4 h at ambient temperature; for Stability (% RE) Freeze-Thaw: three freeze (−80 °C)-thaw cycles; for Stability (% RE) Post-Preparative: 12 h after sample preparation at 4 °C
Experimental: As illustrated in Table 4. The stability of QC samples at three evaluated concentrations contained low, medium and high under different stored conditions was assessed on the basis of peak areas in comparison with freshly prepared QC sample.
(§1) The stability of the fourteen analytes in beagle dogs investigated by analyzing QC samples of each analyte at three QC levels (LQC, MQC and HQC) and each level contained six replicates. The short-term stability was assessed during storage for 4 h at ambient temperature. The long-term stability was determined after the QC samples had been stored for 2 weeks at −80 °C. The freeze-thaw stability was determined after three freeze at −80 °C and thaw cycles. and post-preparative stability was during storage for 12 h after sample preparation at 4 °C. The room temperature stability for stock solution was determined after storing the sample at 25 °C for 24 h. A series of concentrations of stability testing QC samples was gained by the calibration curve which was established from freshly prepared standard samples.

[2] = Room temperature stability of stock solution; type: physicochemical; settings: 25 °C for 24 h, n = 6
Experimental: as §1

[3] = Pharmacokinetic study in beagle dogs after oral administration of C. bungeana extract (UHPLC-MS/MS of plasma); settings: for AUC(0-inf) / AUC(0-t) / Cmax / Tmax / half-life: male, beagle, dog, plasma, po, 0.12 g/kg; for Shape of plasma concentration-time profile / Time of first peak of plasma concentration-time profile / Time of second peak of plasma concentration-time profile: beagle dog plasma; for Shape of plasma concentration-time profile: oral C. bungeana extract 0.12 g/kg; for Time of first peak of plasma concentration-time profile / Time of second peak of plasma concentration-time profile: oral C. bungeana extract, post-dose
Experimental: The developed UHPLC-MS/MS method was employed to determine the pharmacokinetics of the fourteen components in C. bungeana after a single oral administration of 0.12 g/kg (equivalent to 1180.8 µg/kg A, 100.8 µg/kg B, 172.8 µg/kg C, 194.4 µg/kg D, 147.6 µg/kg E, 291.6 µg/kg F, 7.2 µg/kg G, 64.8 µg/kg H, 10.8 µg/kg I, 435.6 µg/kg J, 7.2 µg/kg K, 2851.2 µg/kg L, 694.8 µg/kg M, 928.8µg/kg N) to six beagle dogs. […] According to the Meeh-Rubn method, we established a final oral dosage of 0.12 g/kg in dogs. The plasma concentrations of the fourteen components at each time point were detected and the data gained from six beagle dogs were averaged.
Before the experiment, the beagle dogs were fasted for 12 h but given water during the research period. Blood (300 µL) was collected from the forelimb vein plexus at a few specific time points (0.083, 0.25, 0.5, 0.75 and 1, 2, 3, 4, 6, 8, 12, 24 h) after the oral administration of the extract of C. bungeana (0.12 g/kg). After centrifugation at 13,000 rpm for 10 min, the plasma was collected immediately and maintained at −80 °C until sample analysis.
Using a liquid-liquid extraction method, 100 µL of methanol and 50 µL of IS (bifendate) were added to a beagle dog plasma sample (100 µL) followed by vortex for 30 s. Then 3 mL of aether was accurately added and the mixture was vortexed for 60 s. After this step, the samples were put into a centrifuge (XiangYi Technologies, Changsha, Hunan, China). The organic supernatant was pipetted into clean glass tubes individually after centrifugation 3800 rpm for 6 min. The upper organic layer was removed and evaporated to dryness at 40 °C under a stream of nitrogen. The residue was then redissolved with 100 µL of mobile phase (28% acetonitrile), vortexed for 30 s and filtered by a 0.22 µm membrane. A 10 µL aliquot of the solution was injected into the UHPLC-MS/MS system for analysis.
Concentrations of fourteen alkaloids in beagle dog blood were calculated employing the Excel program (Microsoft Corp., Redmond, WA, USA). Pharmacokinetic parameters were calculated using non-compartmental methods. The elimination rate constant (Ke) was calculated employing the linear regression of the terminal points in a semi-log plot of the plasma concentration against time. The elimination half-life (t1/2) was calculated using the formula. t1/2 = 0.693/Ke(1)
The area under the blood concentration versus time curve up to the last quantifiable time point (AUC0→t) was calculated by the linear trapezoidal rule. The area under the plasma concentration –time curve to time infinity (AUC0→∞) was calculated as follows: AUC0→∞ = AUC0→t + Ct/Ke(2)
The maximum observed blood concentration (Cmax) and the time to reach maximum observed blood concentration (Tmax) were obtained directly from the concentration-time curve.

| Compound | Stability (% RE) Long-Term ([1]; high QC in beagle plasma) [% RE] | Stability (% RE) Short-Term ([1]; high QC in beagle plasma) [% RE] | Stability (% RE) Freeze-Thaw ([1]; high QC in beagle plasma) [% RE] | Stability (% RE) Post-Preparative ([1]; high QC) [% RE] | Stability (% RE) Long-Term ([1]; low QC in beagle plasma) [% RE] | Stability (% RE) Short-Term ([1]; low QC in beagle plasma) [% RE] | Stability (% RE) Freeze-Thaw ([1]; low QC in beagle plasma) [% RE] | Stability (% RE) Post-Preparative ([1]; low QC) [% RE] | Stability (% RE) Long-Term ([1]; medium QC in beagle plasma) [% RE] | Stability (% RE) Short-Term ([1]; medium QC in beagle plasma) [% RE] | Stability (% RE) Freeze-Thaw ([1]; medium QC in beagle plasma) [% RE] | Stability (% RE) Post-Preparative ([1]; medium QC) [% RE] | Stability (% RE) Room Temperature for Stock-Solution ([2]; high QC level) [% RE] | Stability (% RE) Room Temperature for Stock-Solution ([2]; low QC level) [% RE] | Stability (% RE) Room Temperature for Stock-Solution ([2]; medium QC level) [% RE] | AUC(0-inf) [3] [ng·h/mL] | AUC(0-t) [3] [ng·h/mL] | Cmax [3] [ng/mL] | Tmax [3] [h] | half-life [3] [h] | other results |
| --- | --- | --- | --- | --- | --- | --- | --- | --- | --- | --- | --- | --- | --- | --- | --- | --- | --- | --- | --- | --- | --- |
| COc1cc2c(cc1OC)[C@@H]1Cc3ccc(OC)c(OC)c3CN1CC2 [Terahydropalmatine, tetrahydropalmatine] | 10.23 | 5.15 | 10.09 | 8.76 | −5.67 | 9.24 | 11.34 | 10.82 | 11.88 | 3.11 | 12.23 | 8.29 | 1.28 | 2.97 | 4.65 | 622 ± 52.5 | 585 ± 59.9 | 205 ± 22.4 | 0.92 ± 0.13 | 5.58 ± 1.46 | – |
| COc1ccc2cc3[n+](cc2c1O)CCc1cc2c(cc1-3)OCO2 [Berberrubine, berberrubine] | 11.01 | 10.78 | 10.06 | 5.08 | 11.85 | 11.76 | 12.88 | 5.99 | 3.75 | 5.82 | 5.15 | 7.97 | 3.65 | −2.05 | 1.25 | 1200 ± 86.3 | 1160 ± 94.2 | 450 ± 61.6 | 0.96 ± 0.1 | 4.88 ± 1.72 | – |
| CN1Cc2c(ccc3c2OCO3)[C@@]2(C)[C@@H](O)Cc3cc4c(cc3[C@@H]12)OCO4 [Corynoline, corynoline] | 9.74 | 6.81 | 7.95 | 5.40 | 13.95 | −2.63 | 6.11 | 7.14 | 6.81 | 9.25 | 6.78 | −2.98 | – | – | – | 755 ± 58.9 | 734 ± 57.5 | 224 ± 15.3 | 0.96 ± 0.1 | 4.25 ± 0.81 | Shape of plasma concentration-time profile [3]: conspicuous bimodal phenomenon; Time of first peak of plasma concentration-time profile [3]: 0.5 to 1 h; Time of second peak of plasma concentration-time profile [3]: 4 to 8 h |
| COc1ccc2cc3[n+](cc2c1OC)CCc1cc2c(cc1-3)OCO2 [Berberine, berberine] | 7.00 | 11.96 | 7.71 | 10.36 | 7.75 | 9.61 | 12.57 | 11.84 | 7.72 | 7.42 | 11.60 | 9.39 | −3.26 | 2.22 | 4.08 | 3770 ± 139 | 3690 ± 141 | 1370 ± 313 | 0.92 ± 0.13 | 2.49 ± 0.14 | Shape of plasma concentration-time profile [3]: conspicuous bimodal phenomenon; Time of first peak of plasma concentration-time profile [3]: 0.5 to 1 h; Time of second peak of plasma concentration-time profile [3]: 4 to 8 h |
| COc1cc2c(cc1OC)-c1cc3ccc(OC)c(OC)c3c[n+]1CC2 [Palmatine, palmatine] | 11.04 | 6.73 | 8.37 | −7.08 | 7.79 | 9.42 | 10.26 | 6.92 | 10.77 | −6.30 | 8.08 | 9.22 | – | – | – | 9580 ± 596 | 8040 ± 459 | 1900 ± 84.9 | 0.96 ± 0.1 | 8.56 ± 1.29 | Shape of plasma concentration-time profile [3]: conspicuous bimodal phenomenon; Time of first peak of plasma concentration-time profile [3]: 0.5 to 1 h; Time of second peak of plasma concentration-time profile [3]: 4 to 8 h |
